Earlier results in US11147270B2, “Pesticide based on formation of formate anion in situ” (priority 2018, dated 2021).

Settings: at 20° C.

Cl [hydrochloric acid]
vapor pressure: approximately 32452 mmHg
